Data as given in ChEMBL document CHEMBL1201862, “PubChem BioAssay data set” (2004).
Active and inactive are the calls of the source.

What was measured:
[1] = target: DNA topoisomerase (Yersinia pestis, UniProt A0A2S9PM60); test: Y. pestis Topo-I inhibitors, cleavage product readout, dose response, biochemical, cherry-pick (AID 588525)
[2] = target: T1, Sentrin-specific protease 7 (Homo sapiens, UniProt Q9BQF6); test: SENP7 protease inhibitors, SAR follow-up, biochemical, luminescence (AID 504497); format: functional
T1 sequence (Q9BQF6 whole entry): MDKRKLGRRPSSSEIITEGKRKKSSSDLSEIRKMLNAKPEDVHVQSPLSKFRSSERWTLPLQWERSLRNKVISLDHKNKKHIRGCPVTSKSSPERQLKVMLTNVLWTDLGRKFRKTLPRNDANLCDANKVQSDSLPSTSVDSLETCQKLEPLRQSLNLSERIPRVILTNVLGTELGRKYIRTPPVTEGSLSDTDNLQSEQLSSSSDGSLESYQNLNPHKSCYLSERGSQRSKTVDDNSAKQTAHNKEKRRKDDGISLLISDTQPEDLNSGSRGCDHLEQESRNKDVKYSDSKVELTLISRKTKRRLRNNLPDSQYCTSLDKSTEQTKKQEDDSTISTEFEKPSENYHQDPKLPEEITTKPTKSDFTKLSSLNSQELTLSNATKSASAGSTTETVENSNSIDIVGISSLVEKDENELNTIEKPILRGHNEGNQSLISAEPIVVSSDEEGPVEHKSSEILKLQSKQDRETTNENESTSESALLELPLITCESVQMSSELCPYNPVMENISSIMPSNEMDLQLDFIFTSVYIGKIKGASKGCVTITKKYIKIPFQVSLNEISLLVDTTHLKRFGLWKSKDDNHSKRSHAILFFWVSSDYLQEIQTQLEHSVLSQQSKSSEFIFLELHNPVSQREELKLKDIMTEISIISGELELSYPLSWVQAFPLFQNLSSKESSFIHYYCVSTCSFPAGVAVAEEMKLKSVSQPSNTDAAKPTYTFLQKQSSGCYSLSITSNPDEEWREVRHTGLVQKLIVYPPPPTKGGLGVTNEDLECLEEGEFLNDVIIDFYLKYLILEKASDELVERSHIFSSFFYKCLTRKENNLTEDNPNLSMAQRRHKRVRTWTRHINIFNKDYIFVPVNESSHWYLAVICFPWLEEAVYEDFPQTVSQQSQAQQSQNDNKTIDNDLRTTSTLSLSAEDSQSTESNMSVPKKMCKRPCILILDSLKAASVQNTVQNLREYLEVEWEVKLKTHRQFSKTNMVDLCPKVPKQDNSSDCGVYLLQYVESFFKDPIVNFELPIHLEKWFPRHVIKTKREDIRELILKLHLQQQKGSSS

[3] = target: T2, Sentrin-specific protease 8 (Homo sapiens, UniProt Q96LD8); test: SENP8 protease inhibitors, SAR follow-up, biochemical, luminescence (AID 504501); format: functional
T2 sequence (Q96LD8 whole entry): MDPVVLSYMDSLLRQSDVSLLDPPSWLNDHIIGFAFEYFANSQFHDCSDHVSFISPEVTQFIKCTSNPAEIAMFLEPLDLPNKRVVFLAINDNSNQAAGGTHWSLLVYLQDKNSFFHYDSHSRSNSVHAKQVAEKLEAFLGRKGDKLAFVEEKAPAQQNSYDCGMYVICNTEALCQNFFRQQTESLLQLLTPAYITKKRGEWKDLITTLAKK

[4] = target: T3, Caspase-3 (Homo sapiens, UniProt P42574); test: SAR Analysis of small molecule inhibitors of Sentrin-specific proteases (SENPs) using a Caspase-3 Selectivity assay. [Related pubchem assays (depositor defined):AID2540, AID2599, AID434973, AID489001]; format: functional
T3 sequence (P42574 whole entry): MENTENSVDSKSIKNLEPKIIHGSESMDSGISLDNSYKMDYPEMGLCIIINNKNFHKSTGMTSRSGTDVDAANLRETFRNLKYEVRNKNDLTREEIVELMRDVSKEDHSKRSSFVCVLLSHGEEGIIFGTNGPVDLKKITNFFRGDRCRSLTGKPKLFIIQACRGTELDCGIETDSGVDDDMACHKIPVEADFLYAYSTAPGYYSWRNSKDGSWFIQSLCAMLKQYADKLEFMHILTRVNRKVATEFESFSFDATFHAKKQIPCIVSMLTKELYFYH

[5] = target: T4, Sentrin-specific protease 6 (Homo sapiens, UniProt Q9GZR1); test: SAR Analysis of small molecule inhibitors of Sentrin-specific protease 6 (SENP6) using a Luminescent assay. [Related pubchem assays (depositor defined):AID2582, AID2599]; format: functional
T4 sequence (Q9GZR1 whole entry): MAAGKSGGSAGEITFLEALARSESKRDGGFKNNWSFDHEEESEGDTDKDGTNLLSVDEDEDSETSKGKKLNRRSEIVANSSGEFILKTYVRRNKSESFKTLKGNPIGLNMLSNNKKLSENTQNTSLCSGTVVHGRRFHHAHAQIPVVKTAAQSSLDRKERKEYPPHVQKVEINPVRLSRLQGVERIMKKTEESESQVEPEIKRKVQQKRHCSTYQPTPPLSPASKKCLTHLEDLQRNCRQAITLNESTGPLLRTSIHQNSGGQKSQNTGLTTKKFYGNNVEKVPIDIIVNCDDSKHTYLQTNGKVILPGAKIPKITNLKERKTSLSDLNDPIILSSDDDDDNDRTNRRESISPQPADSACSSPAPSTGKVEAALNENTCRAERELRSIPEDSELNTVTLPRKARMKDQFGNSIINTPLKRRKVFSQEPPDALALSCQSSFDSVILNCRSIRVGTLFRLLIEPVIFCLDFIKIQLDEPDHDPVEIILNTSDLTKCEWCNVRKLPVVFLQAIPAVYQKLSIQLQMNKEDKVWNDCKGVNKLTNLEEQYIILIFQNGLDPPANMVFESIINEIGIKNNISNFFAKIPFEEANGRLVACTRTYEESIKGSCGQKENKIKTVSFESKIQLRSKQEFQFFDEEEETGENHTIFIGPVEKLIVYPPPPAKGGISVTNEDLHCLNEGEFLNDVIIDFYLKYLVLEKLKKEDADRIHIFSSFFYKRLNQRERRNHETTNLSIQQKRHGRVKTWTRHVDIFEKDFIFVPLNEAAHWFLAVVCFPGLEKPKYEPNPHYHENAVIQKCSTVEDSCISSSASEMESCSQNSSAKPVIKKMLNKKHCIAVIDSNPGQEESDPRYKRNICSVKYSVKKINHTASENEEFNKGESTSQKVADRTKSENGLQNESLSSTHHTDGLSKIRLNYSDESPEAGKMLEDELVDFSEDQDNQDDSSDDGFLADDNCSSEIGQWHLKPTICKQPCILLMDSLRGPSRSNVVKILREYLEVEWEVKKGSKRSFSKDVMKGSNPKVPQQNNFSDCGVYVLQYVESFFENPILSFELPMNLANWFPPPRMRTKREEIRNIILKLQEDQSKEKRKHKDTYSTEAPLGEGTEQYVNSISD

[6] = system: CHO; test: cytotoxicity in TLR9-MyD88 CHO cells, dose response, cytotoxicity control for TLR9-MyD88 binding inhibitor project, cell-based, luminescence (AID 588339); format: functional, hamster; settings: Cricetulus griseus;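 further: CHO cells stably coexpressing TLR9 and MyD88 fusions from primary screen; compound exposure lasted 48 hours before viability readout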
[7] = growth suppression of PTEN-null colon cells, dose response, cell-based, HCT116 PTEN knockout (AID 1047); format: functional;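 further: HCT116 colon tumor cells with PTEN knocked out; cells exposed to compound for 60 hours before readout; potency for loss of cell viability measured by luminescence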
[8] = growth suppression of beta-catenin-knockout colon cells, dose response, cell-based, HCT116, human colon tumor (AID 1045); format: functional;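 further: HCT116 colon tumor cells with beta catenin knocked out; cells exposed to compound for 60 hours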
[9] = target: Beta Lactamase (Pseudomonas aeruginosa, UniProt Q932Y6); test: beta-lactamase reporter inhibitor potency, dose response, artefact control for TLR9-MyD88 binding inhibitor project, BLA reporter cells, FRET fluorescence (AID 588341); format: cell-based;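 further: cell based assay in CHO-K1 cells stably expressing beta-lactamase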
Beta Lactamase, sequence (Q932Y6 whole entry): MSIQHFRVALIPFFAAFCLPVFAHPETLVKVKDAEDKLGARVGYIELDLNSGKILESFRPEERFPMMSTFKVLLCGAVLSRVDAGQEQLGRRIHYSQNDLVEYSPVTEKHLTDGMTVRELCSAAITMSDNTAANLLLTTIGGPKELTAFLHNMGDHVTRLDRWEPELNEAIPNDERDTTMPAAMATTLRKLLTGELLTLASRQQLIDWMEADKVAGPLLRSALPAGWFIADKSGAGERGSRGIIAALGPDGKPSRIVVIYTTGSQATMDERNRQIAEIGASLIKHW

DNA topoisomerase, sequence (A0A2S9PM60 whole entry): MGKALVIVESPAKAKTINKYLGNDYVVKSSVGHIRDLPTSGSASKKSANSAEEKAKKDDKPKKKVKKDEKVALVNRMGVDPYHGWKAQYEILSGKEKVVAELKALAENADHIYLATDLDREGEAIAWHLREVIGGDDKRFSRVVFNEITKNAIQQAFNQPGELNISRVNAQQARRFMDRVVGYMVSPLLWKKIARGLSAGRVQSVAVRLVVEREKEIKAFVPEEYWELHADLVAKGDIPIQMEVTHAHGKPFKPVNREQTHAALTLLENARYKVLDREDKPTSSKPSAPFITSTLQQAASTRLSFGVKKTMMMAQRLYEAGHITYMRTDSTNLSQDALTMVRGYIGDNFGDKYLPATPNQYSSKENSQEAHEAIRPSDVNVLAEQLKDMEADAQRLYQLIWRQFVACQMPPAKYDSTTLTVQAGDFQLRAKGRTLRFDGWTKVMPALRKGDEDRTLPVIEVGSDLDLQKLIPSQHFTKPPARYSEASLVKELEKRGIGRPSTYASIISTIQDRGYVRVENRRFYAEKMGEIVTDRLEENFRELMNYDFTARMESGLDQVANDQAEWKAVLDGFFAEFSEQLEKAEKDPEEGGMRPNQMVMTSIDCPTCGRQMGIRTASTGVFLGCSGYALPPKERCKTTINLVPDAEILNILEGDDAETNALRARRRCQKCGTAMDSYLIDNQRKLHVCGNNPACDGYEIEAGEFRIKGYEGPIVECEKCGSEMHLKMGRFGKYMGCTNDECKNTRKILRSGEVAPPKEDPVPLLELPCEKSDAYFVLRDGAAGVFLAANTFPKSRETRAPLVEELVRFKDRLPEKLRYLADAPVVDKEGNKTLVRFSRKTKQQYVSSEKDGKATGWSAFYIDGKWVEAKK

CC(C)C(=O)N1CCN(c2nc(-c3ccc(Cl)cc3)cs2)CC1
AC50 [1]: 1.72 µM (active)

Cc1cccc(-c2nc(/C=C/c3ccc(F)cc3)no2)c1
IC50 [2]: > 99 µM (inactive)
IC50 [3]: > 99 µM (inactive)
IC50 [4]: > 99 µM (inactive)
IC50 [5]: > 99 µM (inactive)

O=C(/C=C/c1cn(CC(O)CN2CCCCCC2)c2ccccc12)c1cccs1 (centres undefined)
IC50 [6]: 20.1 µM (inactive)
EC50 [7]: 14.1 µM (active)
EC50 [8]: 11.9 µM (active)
IC50 [9]: 8.35 µM (active)
